Several values for one entry are separate records, joined by “and”; a condition that tells them apart may be missing. Equal values may be shown once.
Assays:
[1] = Critical micellar concentration (CMC) by hydrophobic fluorescence stain diphenylhexatriene (DPH); format: physicochemical; settings: aqueous solution
Source text: A method of measuring the CMC is not particularly limited, but the methods widely known in the related art may be used. For example, the CMC may be measured by a fluorescence detection method using diphenylhexatriene (DPH).
(§1) To determine characteristics of the MNAs of Preparative Example 1 to 10 synthesized according to the synthesis method of Example 1, the molecular weights (M.W.) and critical micellar concentrations (CMCs) of the MNAs and the hydrodynamic radii (Rh) of the formed micelles were measured.
(§2) Specifically, the critical micellar concentration (CMC) was measured using a hydrophobic fluorescence stain (diphenylhexatriene (DPH)), and the hydrodynamic radii (Rh) of the micelles formed by each of the preparations were measured by a dynamic light scattering (DLS) experiment. The measured results were compared to those of DDM that is a conventional amphipathic molecule (a detergent), and are listed in Table 1.

boron transporter (Bor1) = molecular target: T1, boron transporter (Bor1) (Arabidopsis thaliana, UniProt Q8VYR7); experiment: Structural stability and extraction of Bor1 by heat fluorescence size exclusion chromatography (hFSEC)
T1 construct: made in house; host or cells: Saccharomyces cerevisiae FGY217
Procedure: An experiment for measuring the structural stability of a boron transporter (Bor1) by the MNAs was performed. The structural stability of Bor1 was measured using heat fluorescence size exclusion chromatography (hFSEC), and the concentrations of the MNAs and DDM were CMC plus 0.04% by weight. Specifically, Bor1 of Arabidopsis thaliana was expressed in Saccharomyces cerevisiae FGY217 cells as a fusion protein having a C-terminal GFP-His tag. The cells were grown in a -URA medium supplemented with 0.1% glucose. Expression of proteins was induced by adding 2% galactose, and the cells were then cultured at 20° C. for 18 hours. Here, the cell culture was carried out according to the method described in the article by D. Drew et al. (Nat. Protoc. 2008, 3, 784-798.). The cells were collected to prepare membranes, and the cell collection was carried out according to the method described in the article by J. Leung et al. (Protein Expr. Purif. 2010, 72, 139-146.). The membranes including the Bor1-GFP fusion protein were diluted with phosphate-buffered saline (PBS, pH 7.4) until the final concentration of the total proteins reached 2.8 mg/mL. In this case, 1% by weight of DDM or 1% by weight of MNA (MNA-1, MNA-2, MNA-3, MNA-4, MNA-5, MNA-6, or MNA-7) was added to the PBS. Samples were incubated for an hour while shaking at 4° C., and insoluble materials were then removed by centrifugation at 14,000 g and 4° C. for an hour. The supernatant including the dissolved protein samples was heated at 40° C. for 10 minutes, and the strongly aggregated proteins were removed by centrifugation at 14,000 g and 4° C. for 10 minutes. 200 μL of the supernatant of the samples was injected into a Superose 6 10/300 column equilibrated with 20 mM Tris (pH 7.5), 150 mM NaCl, and 0.03% DDM. Each of elution fractions was collected in 200 μL fractions at a retention volume of 6.4 mL (e.g., 6.4 mL after elusion) in a clear bottom 96-well plate. The GFP fluorescence of each of the fractions was measured at an excitation wavelength of 470 nm and an emission wavelength of 512 nm.

[2] = molecular target: T2, human β2 adrenergic receptor (β2AR) (Homo sapiens, UniProt P07550); experiment: mBBr-β2AR bimane spectra at detergent concentration below CMC; format: biochemical; settings: detergent diluted to a fiftieth of its CMC, compared to DDM, FIG. 21
T2 construct: made in house
Procedure: Experiments for comparing the structural changes of the β2AR protein by the MNAs and DDM at a concentration below CMCs of the amphipathic molecules were performed.
Specifically, 0.5 μL of a non-ligand mBBr-labeled receptor dissolved at 50 μNI in a 20×CMC concentration of MNA-5, MNA-6, or MNA-7 was diluted with 500 μL of an NH buffer (20 mM HEPES pH 7.5, and 100 mM NaCl). The proteins were cultured for 30 minutes, and the bimane spectra thereof were measured. The receptor dissolved in 0.1% DDM was diluted with the NH buffer, and used as the control. Data was presented as an average of three separate experiments performed in triplicate.

[3] = molecular target: T2, human β2 adrenergic receptor (β2AR); experiment: Bimane fluorescence spectra of mBBr-β2AR with ISO or ISO plus G-protein; format: biochemical; settings: combination of ISO and G-protein, FIG. 20
Procedure: Experiments for measuring the structural stabilities of a human β2 adrenergic receptor (β2AR), a G-protein-coupled receptor (GPCR), in the MNAs were performed.
Experiments for measuring the structural changes and structural stabilities of mBBr-β2AR by the MNAs (MNA-5, MNA-6, MNA-7) and DDM according to the presence or absence of a full agonist (isopreoterenol (ISO)) or a combination of ISO and G-protein were performed.
Specifically, β2AR dissolved in 0.1% DDM was purified according to the method disclosed in the article by D. M. Rosenbaum et al. (Science 2007, 318, 1266-1273) and then concentrated to a concentration of approximately 1 mg/mL. […] The mBBr-labeled β2AR was cultured for 30 minutes, and the mBBr spectra thereof were measured and compared to the spectra of the mBBr-labeled receptor dissolved in 0.1% DDM. The fluorescence of the mBBr-labeled β2AR was measured at 370 nm and thus determined by emission from 430 to 510 nm at 1-nm increments with 1 nm s^−1 integration using a Spex FluoroMax-3 spectrofluorometer (Jobin Yvon Inc.) which was run in a photon counting mode through a 4-nm emission bandwidth pass. mBBr dissolved in DDM was used as the positive control. […]

[4] = Hydrodynamic radius and size distribution of micelles by dynamic light scattering (DLS); format: physicochemical
Source text: A method of measuring the radius of the micelle is not particularly limited, but the methods widely known in the related art may be used. For example, the radius of the micelle may be measured using a dynamic light scattering (DLS) experiment.
as §1, §2
Meanwhile, the size distributions of the micelles formed by the MNAs were measured using DLS, and the measurement results are shown in FIG. 17. The MNAs were used at a content of 1.0% by weight.

T2 sequence (P07550 whole entry): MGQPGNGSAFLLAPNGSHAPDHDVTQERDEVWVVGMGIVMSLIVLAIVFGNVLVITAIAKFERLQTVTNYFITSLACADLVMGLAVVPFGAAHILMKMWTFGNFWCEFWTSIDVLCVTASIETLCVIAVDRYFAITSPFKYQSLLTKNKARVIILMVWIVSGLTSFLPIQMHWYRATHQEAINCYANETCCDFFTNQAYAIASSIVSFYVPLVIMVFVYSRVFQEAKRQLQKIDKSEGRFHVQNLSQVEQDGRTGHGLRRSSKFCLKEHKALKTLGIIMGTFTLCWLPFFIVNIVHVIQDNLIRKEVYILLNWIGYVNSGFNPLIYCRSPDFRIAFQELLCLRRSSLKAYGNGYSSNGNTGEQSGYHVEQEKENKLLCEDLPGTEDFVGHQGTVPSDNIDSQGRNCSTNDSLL
T1 sequence (Q8VYR7 whole entry): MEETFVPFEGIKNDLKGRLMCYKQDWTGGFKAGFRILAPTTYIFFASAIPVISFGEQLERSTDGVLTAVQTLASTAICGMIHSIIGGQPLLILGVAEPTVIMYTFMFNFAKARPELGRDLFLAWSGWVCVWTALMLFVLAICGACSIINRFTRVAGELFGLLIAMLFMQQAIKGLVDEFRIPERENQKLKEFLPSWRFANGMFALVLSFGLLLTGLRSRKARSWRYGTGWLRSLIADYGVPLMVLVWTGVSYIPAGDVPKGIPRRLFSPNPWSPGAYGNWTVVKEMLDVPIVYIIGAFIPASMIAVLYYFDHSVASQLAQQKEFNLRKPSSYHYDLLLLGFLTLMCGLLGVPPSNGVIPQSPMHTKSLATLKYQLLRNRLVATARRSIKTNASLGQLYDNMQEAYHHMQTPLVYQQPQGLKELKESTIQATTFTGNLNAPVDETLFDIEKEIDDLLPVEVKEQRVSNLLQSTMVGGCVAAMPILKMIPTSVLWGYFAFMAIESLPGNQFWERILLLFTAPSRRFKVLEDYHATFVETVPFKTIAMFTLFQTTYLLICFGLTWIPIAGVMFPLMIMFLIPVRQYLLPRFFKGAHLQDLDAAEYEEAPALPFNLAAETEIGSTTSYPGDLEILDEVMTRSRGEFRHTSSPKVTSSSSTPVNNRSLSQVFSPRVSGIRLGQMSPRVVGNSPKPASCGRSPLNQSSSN

CMC [1]: ~0.004 mM | Bor1 extraction efficiency (boron transporter (Bor1); 1% by weight detergent, membranes with Bor1-GFP): 60% | level of Bor1 protein aggregation after heat treatment (boron transporter (Bor1); hFSEC, 40° C. for 10 minutes, FIG. 18): lower level of Bor1 aggregation than DDM | stability of β2AR [2]: secured for a prolonged period of time | Rh (nm), hydrodynamic radius of micelles [4]: 3.0 nm and 3.0 ± 0.01 nm
Structure (SMILES): CCCCCCCCCCCCO[C@H]([C@@H](OCCCCCCCCCCCC)[C@H](CO[C@@H]1OC(CO)[C@@H](O)C(O)C1O)O[C@@H]1OC(CO)[C@@H](O)C(O)C1O)[C@H](CO[C@@H]1OC(CO)[C@@H](O)C(O)C1O)O[C@@H]1OC(CO)[C@@H](O)C(O)C1O (stereo partly drawn) [MNA-5]
bimane fluorescence spectra of mBBr-β2AR [3]: slightly higher fluorescence intensity than DDM

Reference: patent publication US10889609B2, “Mannitol-based amphipathic compound and use thereof” (Industry-University Cooperation Foundation Hanyang …, priority 2015, dated 2021)
